This test has as its target T1, PCYOX1 (mammalian ancestor).
T1 construct: mammalian ancestor's PCYOX1 (26-502), without signal peptide, six histidine N-terminal tag
As to the kind of experiment: microscale thermophoresis; GC-MS detection of farnesal. The class given is binding, synthetic construct. (MST reads how a fluorescent partner responds to local heating, with and without ligand.)

As a reminder, the Kd is the free concentration of one partner at which half of the binding sites on the other are occupied at equilibrium, for simple one-to-one binding. `CC(C)=CCC/C(C)=C/CC/C(C)=C/CSc1ccccc1C(=O)O` [salirasib] yielded a Kd of 12 ± 0.2 µM.

For the origin of these results see article PMC11530802, “Evolution, structure, and drug-metabolizing activity of mammalian prenylcysteine oxidases” (The Journal of Biological Chemistry, 2024).
